{"source": "patent US8742083B1", "about": "“Panel of micrornas that silence the MCL-1 gene and sensitize cancer cells to ABT-263” (AbbVie Inc., priority 2009, dated 2014)", "assay_type_in_all_cases": "cell-based, human", "key": {"[1]": {"test_system": "HCT-116 cells", "assay": "ABT-263 sensitization, CellTiter Glo cell viability after reverse transfection of miRNA/siRNA", "conditions": "for sensitization of HCT-116 cells to ABT-263, in words / sensitization of HCT-116 cells to ABT-263 (decrease in cell viability): 1 μM ABT-263, 48 hours; for sensitization of HCT-116 cells to ABT-263, in words: reverse transfection (miRNA 50 nM, siRNA 12.5 nM); for sensitization of HCT-116 cells to ABT-263 (decrease in cell viability): 50 nM miRNA mimic reverse transfected", "description": "HCT-116 and CHL1 cells were purchased from the American Type Culture Collection (ATCC) and cultured in DMEM (Invitrogen Corp., Grand Island, N.Y.) supplemented with 10% fetal bovine serum (Invitrogen) and 1% penicillin/streptomycin (Invitrogen). All cell lines were maintained in a humidified chamber at 37° C. containing 5% CO2. These cells were authenticated by morphological, cell proliferation and Mycoplasma tests recommended in the ATCC Technical Bulletin no, 8 (2007). Cells were reverse transfected at 1.5−2.5×10^4 cells/[…] in 96-well tissue culture plates. siRNA or miRNA transfection was performed using Lipofectamine 2000 according to manufacturer's instructions (Invitrogen). For Mcl-1 and Bcl-xl siRNA transfections, a final concentration of 12.5 nM siRNA was used. For miRNA transfections, a final concentration of 50 nM miRNA was used. The cells were then grown in medium without antibiotic for 2 days before harvesting. For reporter experiments, 100 ng of pcDNA3-Mcl-1-3′UTR-luciferase reporter construct (21) was included in the liposome complex mix. Forty-eight hours after transfection, cells were assayed for viability using CellTiter Glo Luminescent cell viability assay according to the manufacturer's protocol (Promega). Caspase 3/7 activity was measured using the Caspase-Glo 3/7 assay (Promega). Luciferase activity was measured using the Steady-Glo reagent according to the manufacturer's protocol (Promega).\nHCT-116 cells were reverse transfected as described in Example 1 above. Three replica plates were treated with 1 μM ABT-263 in media. […] HCT-116 cells were reverse transfected with sensitizing miRNAs in the presence or absence of 1 μM ABT-263 for 48 hours. Cell viability was measured with CellTiter Glo assay. MiR-29 and miR-125 were used as positive and negative controls for this assay. miRNAs that sensitize HCT-116 cells to ABT-263 by more than 25% are shown. FIG. 1B is a bar graph showing miRNAs that sensitize CHL1 cells to ABT-263. CHL1 cells were reverse transfected with sensitizing miRNAs in the presence or absence of 1 μM ABT-263 for 48 hours. Cell viability was measured with CellTiter Glo assay. Only miRNAs that sensitize HCT-116 cells to ABT-263 by more than 25% were shown. (See FIG. 6 for the complete list of 42 miRNAs). FIG. 1C is a bar graph showing modulation of Mcl-1 protein expression by sensitizing miRNAs in CHL1 cells. CHL1 cells were reverse transfected with sensitizing miRNAs. Mcl-1 expression was measured using a Luminex-based assay as described in the Methods section.\nTo identify miRNAs that modulate sensitivity of cells to Bcl-2 family inhibitor ABT-263, an miRNA “sensitization” screen was performed using an miRNA mimic library in the presence of ABT-263. The screen was conducted in a colon cancer cell line HCT-116. […] Synthetic miRNA mimics were reverse transfected into HCT-116 cells in the presence or absence of ABT-263 (FIG. 4). Reverse transfection of Mcl-1 siRNA and predicted Mcl-1-targeting miRNAs sensitized HCT-116 cells to 1 μM ABT-263 after 48 hours.\nHCT-116 cells were reverse transfected with a library of 810 annotated miRNA mimics in triplicate in the presence of 1 μM ABT-263 (FIG. 5A). Viability of cells was determined after 2 days. […] Z-scores were used to select candidate miRNAs for subsequent experiments. Of 810 miRNA mimics, 80 increased cell death in the presence of ABT-263. Thirty-eight of these 80 miRNAs either reduced cell viability in the absence of ABT-263 (Z←1.5) or represented mimic replicates from the screen, and therefore were not subjected to further testing. The remaining 42 miRNAs were tested in a secondary screen to assess their effect in the presence or absence of ABT-263. MiR-29 and miR-125 were used as control for this screen. […] FIG. 6A identifies miRNAs that sensitize HCT-116 cells to ABT-263. HCT-116 cells were reverse transfected with sensitizing miRNAs in the presence or absence of 1 μM ABT-263 for 48 hours. Cell viability was measured with CellTiter Glo assay. […]"}, "[2]": {"test_system": "CHL1 cells", "assay": "ABT-263 sensitization, CellTiter Glo cell viability after reverse transfection of miRNA/siRNA", "conditions": "no ABT-263", "description": "(§1) HCT-116 and CHL1 cells were purchased from the American Type Culture Collection (ATCC) and cultured in DMEM (Invitrogen Corp., Grand Island, N.Y.) supplemented with 10% fetal bovine serum (Invitrogen) and 1% penicillin/streptomycin (Invitrogen). All cell lines were maintained in a humidified chamber at 37° C. containing 5% CO2. These cells were authenticated by morphological, cell proliferation and Mycoplasma tests recommended in the ATCC Technical Bulletin no, 8 (2007). Cells were reverse transfected at 1.5−2.5×10^4 cells/[…] in 96-well tissue culture plates. siRNA or miRNA transfection was performed using Lipofectamine 2000 according to manufacturer's instructions (Invitrogen). […] Caspase 3/7 activity was measured using the Caspase-Glo 3/7 assay (Promega). Luciferase activity was measured using the Steady-Glo reagent according to the manufacturer's protocol (Promega).\nHCT-116 cells were reverse transfected as described in Example 1 above. […] Cell viability was measured with CellTiter Glo assay. […] Cell viability was measured with CellTiter Glo assay. […] Mcl-1 expression was measured using a Luminex-based assay as described in the Methods section.\nHCT-116 cells were reverse transfected with a library of 810 annotated miRNA mimics in triplicate in the presence of 1 μM ABT-263 (FIG. 5A). Viability of cells was determined after 2 days. […] Cell viability was measured with CellTiter Glo assay. […]"}, "[3]": {"test_system": "Mcl-1 3′-UTR", "assay": "Mcl-1 3′-UTR luciferase reporter assay in HCT-116 cells", "conditions": "HCT-116 cells cotransfected with 100 ng reporter, 48 hours", "description": "as §1\nMiRNA could modulate sensitivity to ABT-263 through several mechanisms: by directly targeting the Mcl-1 gene 3′-UTR and repressing protein translation or by targeting molecules involved in regulating Mcl-1 expression or function. […] Measure was taken of the effect of two Mcl-1 siRNAs and the twelve strongest sensitizing miRNAs on the Mcl-1 protein levels in HCT-116 cells using the Mcl-1 quantitative assay described above. […] Mcl-1 protein expression was measured using the Mcl-1 Luminex assay. […]"}, "[4]": {"test_system": "Mcl-1", "assay": "Mcl-1 protein expression, Luminex-based assay, in HCT-116 cells", "conditions": "50 nM miRNA or Mcl-1 siRNA, 48 hours", "text": "The present disclosure also provides a method for determining whether an miRNA increases sensitivity of a subject to treatment with a Bcl-2 family inhibitor. The method includes a) reverse transfecting a population of cancer cells with the candidate miRNA; b) contacting the cells with an effective amount of the Bcl-2 family inhibitor, and c) determining Mcl-1 expression level in the cells, wherein a decrease in Mcl-1 expression is indicative that the miRNA increases sensitivity of the subject to treatment with the Bcl-2 family inhibitor. Mcl-1 protein expression can be measured using a liquid phase immunoassay using Luminex beads. In brief, an Mcl-1 capture antibody is conjugated to Luminex beads (bead region 9) and an Mcl-1 detection antibody conjugated to biotin. […] Cell assay buffer is added after filtering and the plate is read using a Luminex 200 station. […]\nMcl-1 protein expression was measured using a new Mcl-1 assay based on the Luminex technology. […] Cell assay buffer was added after filtering and the plate was read using a Luminex 200 station. The liquid-phase quantitative protein assay was used to measure the levels of Mcl-1 in cells. […] Using this new Mcl-1 quantitative assay, the effect of these miRNAs on the Mcl-1 protein levels in CHL1 cells was measured. […]"}}, "data": [{"molecule": "CC1(C)CCC(c2ccc(Cl)cc2)=C(CN2CCN(c3ccc(C(=O)NS(=O)(=O)c4ccc(N[C@H](CCN5CCOCC5)CSc5ccccc5)c(S(=O)(=O)C(F)(F)F)c4)cc3)CC2)C1", "note": "[ABT-263, N-(4-(4-((2-(4-chlorophenyl)-5,5-dimethyl-1-cyclohex-1-en-1-yl)methyl)pip-erazin-1-yl)benzoyl)-4-(((1R)-3-(morpholin-4-yl)-1-((phenylsulfanyl)methyl-)propyl)amino)-3-((trifluoromethyl)sulfonyl)benzenesulfonamide]", "values": [{"measurement": "effect of ABT-263 alone on HCT-116 cell viability", "setting": "[1]; in the presence of the control siRNA and miRNA", "result": "≤ 25", "unit": "%"}]}, {"molecule": "Mcl-1 siRNA: Mcl-1 targeting siRNA, sequence GCATCGAACCATTAGCAGATT (listed as DNA, chemistry not given here)", "values": [{"measurement": "CHL1 cell viability after transfection in the absence of ABT-263", "setting": "[2]", "result": "affected CHL1 cell viability"}, {"measurement": "sensitization of HCT-116 cells to ABT-263, in words", "setting": "[1]", "result": "significantly sensitize"}, {"measurement": "HCT-116 cell viability after transfection in the absence of ABT-263", "setting": "[1]; no ABT-263", "result": "would not affect cell viability"}]}, {"molecule": "miR-29: control miRNA (positive control), sequence UAGCACCAUUUGAAAUCAGUGUU (listed as RNA, chemistry not given here)", "values": [{"measurement": "sensitization of HCT-116 cells to ABT-263, in words", "setting": "[1]", "result": "much weaker"}]}, {"molecule": "miR-125: control miRNA (negative control), sequence UCCCUGAGACCCUUUAACCUGUGA (listed as RNA, chemistry not given here)", "values": [{"measurement": "sensitization of HCT-116 cells to ABT-263, in words", "setting": "[1]", "result": "did not sensitize"}]}, {"molecule": "miR-153: sensitizing human miRNA, sequence UUGCAUAGUCACAAAAGUGAUC (listed as RNA, chemistry not given here)", "values": [{"measurement": "sensitization of HCT-116 cells to ABT-263 (decrease in cell viability)", "setting": "[1]", "result": "~50", "unit": "%"}]}, {"molecule": "miR-193a: sensitizing human miRNA, sequence AACUGGCCUACAAAGUCCCAGU (listed as RNA, chemistry not given here)", "values": [{"measurement": "sensitization of HCT-116 cells to ABT-263 (decrease in cell viability)", "setting": "[1]", "result": "~50", "unit": "%"}]}, {"molecule": "miR-605: sensitizing human miRNA, sequence UAAAUCCCAUGGUGCCUUCUCCU (listed as RNA, chemistry not given here)", "values": [{"measurement": "luciferase activity of Mcl-1 3′-UTR reporter", "setting": "[3]", "result": "did not reduce the luciferase activity"}, {"measurement": "Mcl-1 protein expression in HCT-116 cells", "setting": "[4]", "result": "affected the Mcl-1 protein expression"}]}, {"molecule": "miR-744*: sensitizing human miRNA, sequence CUGUUGCCACUAACCUCAACCU (listed as RNA, chemistry not given here)", "values": [{"measurement": "luciferase activity of Mcl-1 3′-UTR reporter", "setting": "[3]", "result": "did not reduce the luciferase activity"}, {"measurement": "Mcl-1 protein expression in HCT-116 cells", "setting": "[4]", "result": "affected the Mcl-1 protein expression"}]}]}
